# Assays:
# Assay type in all cases: in vivo, human
# [1] = system: LINE-1 repeats (global DNA methylation); assay: LINE-1 methylation assay on whole blood (global DNA methylation), Phase 1/2 trial
# Protocol: Whole-blood samples were collected immediately before treatment, once a week during the first treatment cycle, and then on day 1 of subsequent cycles for demethylation analysis. Global DNA methylation was measured by the long interspersed nuclear element-1 (LINE-1) methylation assay. The LINE-1 assay measures methylation levels of LINE-1 repeats, which serve as a surrogate for global DNA methylation levels. Results of LINE-1 assays were used to assess and changes in methylation from baseline.
# Activity and safety endpoints were evaluated for all patients who received at least one dose of study drug, and no patients who received treatment were excluded from the analyses. […] Time to response and duration of response were summarized in days using descriptive statistics. Overall survival was analyzed using the Kaplan-Meier method, with survival time censored on the last date of contact if the patient was alive or lost to follow-up. Blood and platelet transfusion independence were summarized descriptively in the subset of patients who were transfusion-dependent at baseline. Change from baseline LINE-1 methylation and maximum LINE-1 demethylation were also summarized descriptively, with maximum LINE-1 demethylation defined as the largest percent decrease from baseline in methylation values by patient between days 8 and 22 of the first treatment cycle.
# [2] = Phase 1/2 trial safety: adverse events, all-cause mortality
# From the text: Safety was monitored throughout the study by physical examinations and clinical laboratory tests, including hematology, chemistry for liver and renal function, urinalysis, pregnancy tests, pharmacokinetics, epi-genetics, buccal swab, and pharmacogenetic markers. Electrocardiograms were obtained at baseline screening and day 1 of each treatment cycle.
# The primary endpoint was overall response, which was a composite of complete response (CR), partial response, marrow complete response (mCR), and hematological improvement. Overall response was assessed by local investigators. Secondary endpoints included the individual components of overall response, time to response, duration of response, overall survival, blood transfusion and platelet transfusion independence at weeks 8 and 16, and safety, including the incidence of adverse events, and all-cause early mortality at 30, 60, and 90 days. Exploratory analyses were done to examine the association between baseline characteristics and overall response.
# Treatment-emergent adverse events, which are events that first occurred or worsened after the first dose of study drug until 30 days after the last dose or until the start of an alternative anticancer treatment (whichever occurred first), and all-cause 30-day, 60-day, and 90-day cumulative mortality, were summarized descriptively.
# [3] = Phase 3 trial pharmacokinetics and exposure response
# Protocol: A previously developed Population PK model was applied to calculate model-derived estimates for total cycle exposures (Cmax and AUC) from sparse PK samples collected in Cycle 1 for Compound I-1 and decitabine for use in exposure-response analysis for efficacy and safety. The analyses of exposure-efficacy and exposure-safety relationships were performed separately for patients who received Compound I-1 and patients who received decitabine IV. The following analyses were performed to assess relationships of CR with exposure for each exposure measure: frequencies of CR were tabulated and compared between tertiles of exposure; distributions of exposure were compared for patients with and without CR using box plots; and probability of CR was explored using logistic regression models.
# [4] = system: relapsed/refractory (r/r) AML; assay: Phase 2 study in relapsed/refractory AML: response, duration of response, survival; conditions: for CR response rate, % / CRc (CR + CRp + CRi) response rate, % / CRi response rate, % / CRp response rate, % / CRc, %: r/r AML; for CRc, %: all regimens
# Protocol: A Phase 2 study of Compound I-1 using different regimens and doses (randomized 5-day regimen cohorts of 60 mg/m^2/d vs 90 mg/m^2/d SC) and a cohort of 10-day regimen in the first 1-4 cycles at 60 mg/m^2/d followed by subsequent cycles of 5-day regimen) was conducted as described above. Response and duration of response were assessed using IWG 2003 criteria: Complete Response (CR), CR with incomplete platelet recovery (CRp), and CR with incomplete count recovery (CRi). CR+CRp+CRi was defined as composite CR (CRc). Overall survival (OS) was assessed using the Kaplan-Meier (KM) method. Response status for each dose/regimen cohort and the overall treated population were assessed with analyses of duration of response and long-term survival.
# [5] = 5 Day regimen (60 and 90 mg/m^2), n = 50
# [6] = 10 Day regimen (60 mg/m^2), n = 53
smiles,measurement,setting,value
Nc1ncn([C@H]2CC(OP(=O)(O)OC[C@H]3O[C@@H](n4cnc5c(=O)[nH]c(N)nc54)CC3O)[C@@H](CO)O2)c(=O)n1 (stereo partly shown) [Compound I-1],Mean maximum LINE-1 demethylation,[1]; 60 mg/m^2,23.9%
same,Mean maximum LINE-1 demethylation,[1]; 90 mg/m^2,28.2%
same,Mean maximum LINE-1 demethylation,[1]; relapsed or refractory,28.9%
same,Time of maximum extent of global DNA demethylation,[1]; returned to pretreatment levels by day 28,~8 days
same,Mean maximum LINE-1 demethylation,[1]; treatment-naïve,28.6%
same,Mean maximum LINE-1 demethylation,[1]; with objective treatment response,28.1%
same,Mean maximum LINE-1 demethylation,[1]; without objective treatment response,29.4%
same,Patients who died from serious adverse events,[2]; all treated,Seven
same,Drug-related serious adverse event anemia,"[2]; human, in vivo",3%
same,Drug-related serious adverse event pneumonia,"[2]; human, in vivo",7%
same,Drug-related serious adverse event thrombocytopenia,"[2]; human, in vivo",3%
same,30-day all-cause mortality,[2]; of 102 patients,1%
same,60-day all-cause mortality,[2]; of 102 patients,4%
same,90-day all-cause mortality,[2]; of 102 patients,9%
same,Serious adverse events that led to death considered treatment related,[2]; pneumonia with 90 mg/m^2 and septic shock with 60 mg/m^2,two
same,Exposure to active metabolite decitabine,[3]; Compound I-1 SC vs decitabine IV,longer exposure to the active metabolite decitabine
same,Time of highest mean plasma Compound I-1 concentration (first collection time point),[3]; after SC injection,1.5 h
same,CR Rate,[4]; 5-day regimen,8%
same,CRc rate,[4]; 5-day regimen,16%
same,CR Rate,[4]; 10-day regimen,19%
same,CRc rate,[4]; 10-day regimen,30%
same,2-year survival rate,[4]; CR,57%
same,2-year survival rate,[4]; CRc patients receiving HCT,50%
same,2-year survival rate,[4]; CRc patients who did not undergo HCT,60%
same,2-year survival rate,[4]; CRp/CRi,50%
same,CRc,[4]; early relapse (<6 months from prior treatment),22%
same,"CR Composite (CR + CRp + CRi) Duration of Response, median (range)",[4]; in vivo,7.8 (0.5-30) Months
same,"Complete Response (CR) Duration of Response, median (range)",[4]; in vivo,7 (1-29.5) Months
same,Post treatment HCT in responders,[4]; in vivo,58%
same,Achieved CRc,[4]; of 19 patients who had prior HCT,5 patients
same,Median OS,[4]; patients who achieved CRc (either CR or CRp/CRi),has not been reached
same,CRc,[4]; patients who relapsed after prior HCT (19 patients),26%
same,CRc,[4]; patients with poor risk cytogenetics,19%
same,"CR response rate, %",[4]; [5],(6%)
same,"CRc (CR + CRp + CRi) response rate, %",[4]; [5],(16%)
same,"CRi response rate, %",[4]; [5],(8%)
same,"CRp response rate, %",[4]; [5],(2%)
same,"CR response rate, %",[4]; [6],(19%)
same,"CRc (CR + CRp + CRi) response rate, %",[4]; [6],(30%)
same,"CRi response rate, %",[4]; [6],(4%)
same,"CRp response rate, %",[4]; [6],(7%)
same,"CRc, %",[4]; subgroup Age (y) <65 (N 63),(19%)
same,"CRc, %",[4]; subgroup Age (y) >65 (N 40),(30%)
same,"CRc, %",[4]; subgroup Cytogenetics Adverse (N 42),(19%)
same,"CRc, %",[4]; subgroup Cytogenetics Diploid (N 21),(19%)
same,"CRc, %",[4]; subgroup Cytogenetics Others (N 40),(30%)
same,"CRc, %",[4]; subgroup ECOG PS 0-1 (N 89),(26%)
same,"CRc, %",[4]; subgroup ECOG PS 2 (N 12),(7%)
same,"CRc, %",[4]; subgroup Prior HCT No (N 84),(23%)
same,"CRc, %",[4]; subgroup Prior HCT Yes (N 19),(26%)
same,"CRc, %",[4]; subgroup Response to Induction CR (N 55),(15%)
same,"CRc, %",[4]; subgroup Response to Induction Refractory (N 48),(25%)
same,"CRc, %",[4]; subgroup Time From Last Therapy <6 months (N 82),(22%)
same,"CRc, %",[4]; subgroup Time From Last Therapy >6 months (N 20),(30%)
same,CRc,[4]; refractory patients,31%

# — patent US20200352976A1, “HYPOMETHYLATING AGENTS FOR USE IN TREATMENT OF CANCER” (Otsuka Pharmaceutical Co., Ltd, priority 2019, published 2020)
